In patent publication US4226610A, “Herbicidal compounds, preparation thereof and herbicides containing the same” (Meiji Selka Kaisha, Ltd., priority 1978, dated 1980):

Columns and labels:
yamazakura = assay: Experiment 3 foliar application to naturally growing shrubs; format: in vivo, Prunus donarium Sieb. var. spontanae Makino; details: after 3 months
Method in brief: (§1)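 Compounds, diluted to prescribed concentrations with 0.1% octylphenyl polyoxyethanol as surfactant, were sprayed onto the foliage of naturally growing shrubs at 150 liter per 10 are. Kill was scored on a 0 (no effect) to 5 (death) index at 1 and 3 months. Regrowth was graded from − (no reproduction) to +++ (maximum) at 3 months.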

warunasubi = assay: Experiment 1 foliar application to naturally growing weeds; format: in vivo, Solanum carolinensis L.; details: for Reproduction-inhibiting effect: 4 months
Method in brief: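 Read-outs were a 0–5 killing index at 21 days and a reproduction score from (-), no reproduction, to (+++), no suppression. Reproduction was read at 2 months for cockspar grass and 4 months for the other species, after foliar spraying at 150 liter per 10 are with 0.1% surfactant.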

water hyacinth [1] = assay: Experiment 6 spray on aquatic plants in concrete pots; format: in vivo, Eichhornia crassipes Solms; details: for Reproduction-inhibiting effect: 3 months
From the text: (§2) The detail of the assessment made in the following Experiments of the invention was as follows:
(§3) Four months after treatment, evaluation was made for inhibition of reproduction expressed in terms of symbols ranging from (-) to (+++) where (-) means no reproduction, namely complete suppression of reproduction, (±) remarkable suppression of reproduction; (+) considerable suppression of reproduction; (++) medium supprestion of reproduction; and (+++) no suppression of reproduction.
(§4) A paddy field soil was packed in 50 cm. square concrete pots. omodaka (Sagittaria trifolia L.), urikawa (Sagittaria pygmaea Miq.), prog-bit (Hydrocharis dubia) and aginashi (Sagittaria Aginashi Makino) were transplanted; then water was poured onto the soil at 5 cm. depth.
(§5) Further, water hyacinth, greater-duckweed (Spirodela polyrhiza Schleid.) and duckweed (Lemna paucicostata Hegelm) were floated on the water.
(§6) After one month, the compounds of the invention diluted to the prescribed concentrations as indicated in Table 8 were sprayed in an amount of 100 liter per 10 are. As a surfactant, 0.1% of octylphenyl polyoxyethanol was added thereto.
(§7) The killing index (0, no effect; 5, death) after 21 days and 3 months and the reproduction-inhibiting effect (-, no reproduction; +++, maximum reproduction) after 3 months were determined.

pond scum = assay: Experiment 7 application to water; format: in vivo, Spirogira crassa Kutz.; set-up: scale not given here
From the text: (§8) A black soil was packed in 50 cm. square concrete pots and water was poured there-onto at 50 cm. in depth. Hornwort (Ceratophyllum demersum L.), stonewort (Chara Braunii Gmel.) and salvinia (Salvinia natans All.) were transplanted and pond scum (Spirogira crassa Kutz) and diatoms (Bacillariophyta) were floated in the water.
(§9) Then, the compounds of the invention were applied dropwise onto the surface of the water so that the prescribed concentrations in the water are obtained as indicated in Table 9.

kiichigo = assay: Experiment 3 foliar application to naturally growing shrubs; format: in vivo, Rubus palmatsu Thunb. forma coptophyllus Makino; details: for Reproduction-inhibiting: after 3 months
Method in brief: as §1

hornwort = assay: Experiment 7 application to water; format: in vivo, Ceratophyllum demersum L.; set-up: scale not given here
From the text: as §8, §9

salvinia = assay: Experiment 7 application to water; format: in vivo, Salvinia natans Allioni; set-up: scale not given here
From the text: as §8, §9

oak = assay: Experiment 3 foliar application to naturally growing shrubs; format: in vivo, Quercus serrata Thunb; details: after 3 months
Method in brief: as §1

white clover = assay: Experiment 1 foliar application to naturally growing weeds; format: in vivo, Trifolium repens L.; details: 4 months
Method in brief: (§10)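 Test compounds, diluted to prescribed concentrations with 0.1% octylphenyl polyoxyethanol surfactant, were sprayed onto foliage of naturally growing weeds at 150 liter per 10 are. Killing index (0, no effect; 5, death) was scored at 21 days. Reproduction was scored from (-), complete suppression, to (+++), none, at 2 months for cockspar grass and 4 months for the other weeds.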

lace shrub = assay: Experiment 3 foliar application to naturally growing shrubs; format: in vivo, Stephanandra incisa Zabel
Method in brief: as §1

stonewort = assay: Experiment 7 application to water; format: in vivo, Chara Braunii Gmel.; set-up: scale not given here
From the text: as §8, §9

greaterduckweed = assay: Experiment 6 spray on aquatic plants in concrete pots; format: in vivo, Spirodela polyrhiza Sohleid.; details: for Reproduction-inhibiting effect: 3 months
From the text: as §2, §3, §4, §5, §6, §7

Japanese bush cranberry = assay: Experiment 3 foliar application to naturally growing shrubs; format: in vivo, Viburnum dilatatum Thunb.; details: after 3 months
Method in brief: as §1

progbit = assay: Experiment 6 spray on aquatic plants in concrete pots; format: in vivo, Hydrocharis dubia; details: 3 months
From the text: as §2, §3, §4, §5, §6, §7

urikawa = assay: as above; format: in vivo, Sagittaria pygmaea Miguel; details: 3 months
From the text: as §2, §3, §4, §5, §6, §7

hedge bindweed = assay: Experiment 1 foliar application to naturally growing weeds; format: in vivo, Calystegis hederacea Wall.; details: 4 months
Method in brief: as §10

water hyacinth [2] = assay: Experiment 5 foliar application to water hyacinths; format: in vivo, Eichhornia crassipes Solms; details: 3 months
Method in brief: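 Two plants floated in fertilized water per vessel, sprayed foliarly with 0.1 or 0.2% aqueous compound solutions at 100 liter per 10 are plus 0.1% octylphenyl polyoxyethanol. Killing index (0 no effect to 5 death) scored at 21 days and 3 months; reproduction inhibition scored (-) to (+++) at 3 months.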

## CP(=O)(O)CC[C@H](N)C(=O)O [L-AMPB choline, L-2-Amino-4-methylphosphino-butanoic acid choline]
yamazakura; 0.05%
  Reproduction-inhibiting: -
yamazakura; 0.1%
  Reproduction-inhibiting: -
yamazakura; 0.2%
  Reproduction-inhibiting: -
warunasubi; 0.05%
  Reproduction-inhibiting effect: ±
warunasubi; 0.1%
  Reproduction-inhibiting effect: -
warunasubi; 0.2%
  Reproduction-inhibiting effect: -
Water hyacinth [1]; 0.05%
  Reproduction-inhibiting effect: ++
Water hyacinth [1]; 0.1%
  Reproduction-inhibiting effect: -
Water hyacinth [1]; 0.2%
  Reproduction-inhibiting effect: -
Pond scum; 1 ppm, 3 months
  controlling effect: 4
Pond scum; 1 ppm, 21 days
  controlling effect: 4
Pond scum; 3 ppm, 3 months
  controlling effect: 5
Pond scum; 3 ppm, 21 days
  controlling effect: 5
Pond scum; 10 ppm, 3 months
  controlling effect: 5
Pond scum; 10 ppm, 21 days
  controlling effect: 5
kiichigo; 0.05%
  Reproduction-inhibiting: -
kiichigo; 0.05%, after 30 days
  Killing index: 4.5
kiichigo; 0.1%
  Reproduction-inhibiting: -
kiichigo; 0.2%
  Reproduction-inhibiting: -
hornwort; 1 ppm, 3 months
  controlling effect: 2
hornwort; 1 ppm, 21 days
  controlling effect: 3
hornwort; 3 ppm, 3 months
  controlling effect: 5
hornwort; 3 ppm, 21 days
  controlling effect: 5
hornwort; 10 ppm, 3 months
  controlling effect: 5
hornwort; 10 ppm, 21 days
  controlling effect: 5
salvinia; 1 ppm, 3 months
  controlling effect: 5
salvinia; 1 ppm, 21 days
  controlling effect: 4
salvinia; 3 ppm, 3 months
  controlling effect: 5
salvinia; 3 ppm, 21 days
  controlling effect: 5
salvinia; 10 ppm, 3 months
  controlling effect: 5
salvinia; 10 ppm, 21 days
  controlling effect: 5
oak; 0.05%
  Reproduction-inhibiting: -
oak; 0.1%
  Reproduction-inhibiting: -
oak; 0.2%
  Reproduction-inhibiting: -
White clover; 0.05%
  Reproduction-inhibiting effect: ±
White clover; 0.1%
  Reproduction-inhibiting effect: -
White clover; 0.2%
  Reproduction-inhibiting effect: -
Lace shrub; 0.05%, after 3 months
  Killing index: 4.5
  Reproduction-inhibiting: ±
Lace shrub; 0.05%, after 30 days
  Killing index: 4.5
Lace shrub; 0.1%, after 3 months
  Reproduction-inhibiting: -
Lace shrub; 0.2%, after 3 months
  Reproduction-inhibiting: -
stonewort; 1 ppm, 3 months
  controlling effect: 5
stonewort; 1 ppm, 21 days
  controlling effect: 4
stonewort; 3 ppm, 3 months
  controlling effect: 5
stonewort; 3 ppm, 21 days
  controlling effect: 5
stonewort; 10 ppm, 3 months
  controlling effect: 5
stonewort; 10 ppm, 21 days
  controlling effect: 5
greaterduckweed; 0.05%
  Reproduction-inhibiting effect: -
greaterduckweed; 0.1%
  Reproduction-inhibiting effect: -
greaterduckweed; 0.2%
  Reproduction-inhibiting effect: -
Japanese bush cranberry; 0.05%
  Reproduction-inhibiting: +
Japanese bush cranberry; 0.1%
  Reproduction-inhibiting: -
Japanese bush cranberry; 0.2%
  Reproduction-inhibiting: -
progbit; 0.05%
  Reproduction-inhibiting effect: +
progbit; 0.1%
  Reproduction-inhibiting effect: -
progbit; 0.2%
  Reproduction-inhibiting effect: -
urikawa; 0.05%
  Reproduction-inhibiting effect: +
urikawa; 0.1%
  Reproduction-inhibiting effect: -
urikawa; 0.2%
  Reproduction-inhibiting effect: -
Hedge bindweed; 0.05%
  Reproduction-inhibiting effect: ±
Hedge bindweed; 0.1%
  Reproduction-inhibiting effect: -
Hedge bindweed; 0.2%
  Reproduction-inhibiting effect: -
Water hyacinth [2]; 0.1%
  Reproduction-inhibiting effect: -
Water hyacinth [2]; 0.2%
  Reproduction-inhibiting effect: -

## C[C@H](NC(=O)[C@H](C)NC(=O)[C@@H](N)CCP(C)(=O)O)C(=O)O [SF-1293 choline, (L-2-Amino-4-methylphosphinobutyryl)-L-alanyl-L-alanine choline]
yamazakura; 0.05%
  Reproduction-inhibiting: ++
yamazakura; 0.1%
  Reproduction-inhibiting: -
yamazakura; 0.2%
  Reproduction-inhibiting: -
warunasubi; 0.05%
  Reproduction-inhibiting effect: ++
warunasubi; 0.05%, 21 days
  Killing index of Upperground parts: 3.5
warunasubi; 0.1%
  Reproduction-inhibiting effect: ±
warunasubi; 0.2%
  Reproduction-inhibiting effect: -
Water hyacinth [1]; 0.05%
  Reproduction-inhibiting effect: ++
Water hyacinth [1]; 0.1%
  Reproduction-inhibiting effect: -
Water hyacinth [1]; 0.1%, 21 days
  Killing index: 4.5
Water hyacinth [1]; 0.2%
  Reproduction-inhibiting effect: -
Pond scum; 1 ppm, 3 months
  controlling effect: 1
Pond scum; 1 ppm, 21 days
  controlling effect: 2
Pond scum; 3 ppm, 3 months
  controlling effect: 5
Pond scum; 3 ppm, 21 days
  controlling effect: 3.5
Pond scum; 10 ppm, 3 months
  controlling effect: 5
Pond scum; 10 ppm, 21 days
  controlling effect: 5
kiichigo; 0.05%
  Reproduction-inhibiting: ++
kiichigo; 0.1%
  Reproduction-inhibiting: -
kiichigo; 0.2%
  Reproduction-inhibiting: -
hornwort; 1 ppm, 3 months
  controlling effect: 1
hornwort; 1 ppm, 21 days
  controlling effect: 2
hornwort; 3 ppm, 3 months
  controlling effect: 5
hornwort; 3 ppm, 21 days
  controlling effect: 4
hornwort; 10 ppm, 3 months
  controlling effect: 5
hornwort; 10 ppm, 21 days
  controlling effect: 5
salvinia; 1 ppm, 3 months
  controlling effect: 3
salvinia; 1 ppm, 21 days
  controlling effect: 3.5
salvinia; 3 ppm, 3 months
  controlling effect: 5
salvinia; 3 ppm, 21 days
  controlling effect: 4.5
salvinia; 10 ppm, 3 months
  controlling effect: 5
salvinia; 10 ppm, 21 days
  controlling effect: 5
oak; 0.05%
  Reproduction-inhibiting: ++
oak; 0.1%
  Reproduction-inhibiting: -
oak; 0.2%
  Reproduction-inhibiting: -
White clover; 0.05%
  Reproduction-inhibiting effect: +
White clover; 0.1%
  Reproduction-inhibiting effect: -
White clover; 0.2%
  Reproduction-inhibiting effect: -
Lace shrub; 0.05%, after 3 months
  Reproduction-inhibiting: ++
Lace shrub; 0.1%, after 3 months
  Reproduction-inhibiting: -
Lace shrub; 0.2%, after 3 months
  Reproduction-inhibiting: -
stonewort; 1 ppm, 3 months
  controlling effect: 2
stonewort; 1 ppm, 21 days
  controlling effect: 3
stonewort; 3 ppm, 3 months
  controlling effect: 5
stonewort; 3 ppm, 21 days
  controlling effect: 4
stonewort; 10 ppm, 3 months
  controlling effect: 5
stonewort; 10 ppm, 21 days
  controlling effect: 5
greaterduckweed; 0.05%
  Reproduction-inhibiting effect: +
greaterduckweed; 0.1%
  Reproduction-inhibiting effect: -
greaterduckweed; 0.1%, 21 days
  Killing index: 4.5
greaterduckweed; 0.2%
  Reproduction-inhibiting effect: -
Japanese bush cranberry; 0.05%
  Reproduction-inhibiting: ++
Japanese bush cranberry; 0.1%
  Reproduction-inhibiting: -
Japanese bush cranberry; 0.2%
  Reproduction-inhibiting: -
progbit; 0.05%
  Reproduction-inhibiting effect: ++
progbit; 0.1%
  Reproduction-inhibiting effect: ±
progbit; 0.2%
  Reproduction-inhibiting effect: -
urikawa; 0.05%
  Reproduction-inhibiting effect: ++
urikawa; 0.1%
  Reproduction-inhibiting effect: ±
urikawa; 0.2%
  Reproduction-inhibiting effect: -
Hedge bindweed; 0.05%
  Reproduction-inhibiting effect: +
Hedge bindweed; 0.1%
  Reproduction-inhibiting effect: ±
Hedge bindweed; 0.2%
  Reproduction-inhibiting effect: -
Water hyacinth [2]; 0.1%
  Reproduction-inhibiting effect: ±
Water hyacinth [2]; 0.2%
  Reproduction-inhibiting effect: -
